Data: paper PMC10907374, “G2019S selective LRRK2 kinase inhibitor abrogates mitochondrial DNA damage” (NPJ Parkinson's Disease, 2024)

Key:
[1] = tested on: LRRK2 kinase; details: humans ref 15; cited from earlier work
[2] = tested on: wild-type HEK293 cells; test: Mitophagy (Mtphagy dye / Lyso dye live cell imaging) in wild-type HEK293 cells; assay type: cell-based, human; details: 20 μM FCCP, 3 h
Procedure: (§1) Thirty-five mm cell culture dishes (Cellvis, D35-20-1.5-N) were coated with poly-D-lysine (Sigma-Aldrich, P7280-5MG) for 5 min, washed with cell culture grade water (Sigma-Aldrich, W3500), and allowed to dry for at least 1 h before plating. LRRK2^G2019S/G2019S KI HEK293 and wild-type cells were passaged as described above and plated at 300,000 cells per well on poly-D-lysine-coated dishes. […] Following this, cells were washed three times with serum-free medium, and a working solution of Mtphagy dye (Dojindo, MD-01) was prepared in serum-free medium according to manufacturer protocols. Cultures were incubated with Mtphagy dye for 30 min, followed by three washes with serum-free medium. Complete medium was used to prepare a 20 µM FCCP (Abcam, ab120081) or DMSO control treatment solution, which was used to treat cells for 3 h. Following treatment, cells were then washed 3 times with serum-free medium, and a working solution of Lyso dye (Dojindo, MD-01) was prepared in serum-free medium and used to treat cells for 30 min. Complete medium lacking phenol red was prepared for use in confocal live cell imaging by combining phenol red-free DMEM/F-12 (Fisher Scientific, 21-041-025), FBS (VWR, 97068-085), and penicillin-streptomycin (VWR, 45000-652). Following Lyso dye treatment, cultures were washed three times with phenol red-free medium, followed by adding fresh phenol red-free medium to cell culture dishes. MitoBright LT Deep Red (Dojindo, MT12-12) was diluted in growth medium to prepare a 0.1 μmol/l solution and was used to treat cells for 15 min for total mitochondrial staining. Live cell imaging (5% CO2, 37 °C) was performed using a Zeiss LSM 880 Confocal Laser Scanning Microscope with Zen Black software. On average, ~70 cells were analyzed for each condition per each experimental replicate.
(§2) Following imaging, files were processed using Zen Blue software, and TIFF files of each channel were obtained for analysis. ImageJ was used to obtain readouts for image analysis. All images were converted to 8-bit format. For each respective image, the Lyso dye channel was used to create a mask delineating each lysosomal focus as a region of interest (ROI). Thresholding parameters were adjusted between biological replicates as required to ensure that the Lyso dye ROI encompassed all lysosome foci appropriately, and this was used to create a mask. This was then applied to the corresponding Mtphagy dye channel image, allowing collection of Mtphgy fluorescence intensity readouts for each lysosomal focus. Outliers were removed using Prism software (GraphPad) with the coefficient of removal set to 0.2%. Data was thresholded to exclude lysosomes not containing mitochondria by excluding fluorescence values with intensities equal to or below background levels. The number of ROIs remaining after thresholding was used to quantify lysosomes containing fluorescing mitochondria (mitolysosomes). Fluorescence intensity values for all mitolysosomes per condition per biological replicate were averaged to obtain a value of mitophagy fluorescence intensity per mitolysosome. For each replicate, all values of average mitolysosome fluorescence intensity were normalized to wild-type (vehicle treated) levels for the given replicate.

[3] = tested on: LRRK2^G2019S/G2019S KI HEK293 cells; test: Mitophagy (Mtphagy dye / Lyso dye live cell imaging) in LRRK2 G2019S/G2019S KI HEK293 cells; assay type: cell-based, human; details: 20 μM FCCP, 3 h
Procedure: as §1, §2

SMILES | inhibition of LRRK2 kinase by blood-based markers [1] | mitophagy following FCCP treatment [2] | mitophagy following FCCP treatment [3]
CNc1nc(Nc2cn(C(C)(C)C#N)nc2C)ncc1C(F)(F)F [DNL201] | dose-dependent inhibition |  | 
N#CC(C#N)=NNc1ccc(OC(F)(F)F)cc1 [FCCP] |  | increased | defect
